# Structures can show the parent of a compound that is named as a salt.
# Assay: in vitro
# Settings: human, hek293t cells
row,SMILES,"viability at 48 h, 25 µM [%]"
1,"Cc1ncccc1NC(=O)[C@H](C)NC(=O)C(C)Cl (stereo partly drawn) [6-D09, 2-chloro-N-[(1S)-1-[(2-methylpyridin-3-yl)carbamoyl]ethyl]propanamide]",99.8
2,"CC(Cl)C(=O)NC(=O)NC12CC3CC(CC(C3)C1)C2 (centres unmarked) [6-D10, 1-(adamantan-1-yl)-3-(2-chloropropanoyl)urea]",101
3,"O=C(CCl)NCC(c1nccs1)N1CCCC1 (centres unmarked) [6-D11, 2-chloro-N-[2-(pyrrolidin-1-yl)-2-(1,3-thiazol-2-yl)ethyl]acetamide hydrochloride]",92.9
4,"O=C(CCl)Nc1ccccc1C(=O)Nc1ccc(F)cc1 [6-D12, 2-(2-chloroacetamido)-N-(4-fluorophenyl)benzamide]",0.805
5,"CC(Cl)C(=O)N[C@H](C)c1cnnn1C (stereo partly drawn) [6-D13, 2-chloro-N-[(1R)-1-(1-methyl-1H-1,2,3-triazol-5-yl)ethyl]propanamide]",103
6,"CC(Cl)C(=O)N1CCCc2c1ccnc2N(C)C (centres unmarked) [6-D14, 2-chloro-1-[5-(dimethylamino)-1,2,3,4-tetrahydro-1,6-naphthyridin-1-yl]propan-1-one]",109
7,"CC1=C(c2ccco2)CN(C(=O)C(C)Cl)CC1 (centres unmarked) [6-D15, 2-chloro-1-[5-(furan-2-yl)-4-methyl-1,2,3,6-tetrahydropyridin-1-yl]propan-1-one]",103
8,"CC(Cl)C(=O)N1CCCC1CC(=O)c1cnn(C)c1 (centres unmarked) [6-D16, 2-chloro-1-{2-[2-(1-methyl-1H-pyrazol-4-yl)-2-oxoethyl]pyrrolidin-1-yl}propan-1-one]",116
9,"CC(CO)N(Cc1ccccc1Cl)C(=O)CCl (centres unmarked) [6-D17, 2-chloro-N-[(2-chlorophenyl)methyl]-N-(1-hydroxypropan-2-yl)acetamide]",1.39
10,"CC(Cl)C(=O)N(CCc1ccc(F)cc1F)C(C)C (centres unmarked) [6-D18, 2-chloro-N-[2-(2,4-difluorophenyl)ethyl]-N-(propan-2-yl)propanamide]",101
11,"Cc1ccc(C2CS(=O)(=O)CCN2C(=O)C(C)Cl)o1 (centres unmarked) [6-D19, 4-(2-chloropropanoyl)-3-(5-methylfuran-2-yl)-1lambda6-thiomorpholine-1,1-dione]",107
12,"CC(Cl)C(=O)N[C@H]1C[C@H](Cn2cncn2)C1 (some centres unmarked) [6-D20, 2-chloro-N-[(1r,3r)-3-[(1H-1,2,4-triazol-1-yl)methyl]cyclobutyl]propanamide]",105
13,"COC1(CNC(=O)CCl)CCC(C(F)F)CC1 (centres unmarked) [6-D21, 2-chloro-N-{[4-(difluoromethyl)-1-methoxycyclohexyl]methyl}acetamide]",52.3
14,"CC(Cl)C(=O)N(Cc1ccccc1)C1C=CS(=O)(=O)C1 (centres unmarked) [6-D22, N-benzyl-2-chloro-N-(1,1-dioxo-2,3-dihydro-1lambda6-thiophen-3-yl)propanamide]",98
15,"Cc1ccc(CN(C(=O)CCl)C2CC2)o1 [6-E03, 2-chloro-N-cyclopropyl-N-[(5-methylfuran-2-yl)methyl]acetamide]",0.647
16,"O=C(CCl)NCc1[nH]nc2c1CCCC2 [6-E04, 2-chloro-N-[(4,5,6,7-tetrahydro-2H-indazol-3-yl)methyl]acetamide]",59.9
17,"CC(Cl)C(=O)NC(=O)NCc1cccs1 (centres unmarked) [6-E05, 3-(2-chloropropanoyl)-1-[(thiophen-2-yl)methyl]urea]",106
18,"Cc1c(NC(=O)C(C)Cl)c(=O)n(-c2ccccc2)n1C (centres unmarked) [6-E06, 2-chloro-N-(1,5-dimethyl-3-oxo-2-phenyl-2,3-dihydro-1H-pyrazol-4-yl)propanamide]",109
19,"CC(Cl)C(=O)N1CC(=O)Nc2ccccc21 (centres unmarked) [6-E07, 4-(2-chloropropanoyl)-1,2,3,4-tetrahydroquinoxalin-2-one]",117
20,"CC(Cl)C(=O)Nc1cccc([N+](=O)[O-])c1 (centres unmarked) [6-E08, 2-chloro-N-(3-nitrophenyl)propanamide]",98.7
21,"O=C(CCl)Nc1cc(-n2nnnc2C2CC2)ccc1F [6-E09, 2-chloro-N-[5-(5-cyclopropyl-1H-1,2,3,4-tetrazol-1-yl)-2-fluorophenyl]acetamide]",2.11
22,"Cc1cc(C)c(NC(=O)C(C)Cl)c(Cl)c1 (centres unmarked) [6-E10, 2-chloro-N-(2-chloro-4,6-dimethylphenyl)propanamide]",109
23,"CC(Cl)C(=O)NCCC1=CCCCC1 (centres unmarked) [6-E11, 2-chloro-N-[2-(cyclohex-1-en-1-yl)ethyl]propanamide]",99
24,"O=C(CCl)NC(c1ccccc1)C1CCCCC1 (centres unmarked) [6-E12, 2-chloro-N-[cyclohexyl(phenyl)methyl]acetamide]",1.12
25,"Cc1nnnn1-c1ccc(F)c(NC(=O)CCl)c1 [6-E13, 2-chloro-N-[2-fluoro-5-(5-methyl-1H-1,2,3,4-tetrazol-1-yl)phenyl]acetamide]",1.24
26,"O=C(CCl)NCCc1cccc2ccccc12 [6-E14, 2-chloro-N-[2-(naphthalen-1-yl)ethyl]acetamide]",4.85
27,"CCN(C(=O)CCl)c1ccccc1 [6-E15, 2-chloro-N-ethyl-N-phenylacetamide]",1.62

row,SMILES,"viability at 48 h, 25 µM [%]"
1,"CCCC(=O)N1CCC(NC(=O)CCl)c2ccccc21 (centres unmarked) [6-E16, N-(1-butanoyl-1,2,3,4-tetrahydroquinolin-4-yl)-2-chloroacetamide]",17.5
2,"CC1CCN(Cc2csc(NC(=O)CCl)n2)CC1 [6-E17, 2-chloro-N-{4-[(4-methylpiperidin-1-yl)methyl]-1,3-thiazol-2-yl}acetamide hydrochloride]",0.0269
3,"O=C(CCl)NCC1(c2ccc(F)cc2)CCCC1 [6-E18, 2-chloro-N-{[1-(4-fluorophenyl)cyclopentyl]methyl}acetamide]",5.22
4,"O=C(CCl)NCCc1ncc(F)cn1 [6-E19, 2-chloro-N-[2-(5-fluoropyrimidin-2-yl)ethyl]acetamide]",104
5,"O=C(CCl)NCc1ccc(NC(=O)C2CC2)cc1 [6-E20, N-{4-[(2-chloroacetamido)methyl]phenyl}cyclopropanecarboxamide]",2.09
6,"CC(Cl)C(=O)NC(C)(C)c1ccc(F)cc1F (centres unmarked) [6-E21, 2-chloro-N-[2-(2,4-difluorophenyl)propan-2-yl]propanamide]",93.5
7,"O=C(CCl)NCc1ccc(N2CCOCC2)nc1 [6-E22, 2-chloro-N-{[6-(morpholin-4-yl)pyridin-3-yl]methyl}acetamide]",8.26
8,"Cc1cc(C)cc(OCCN(C)C(=O)CCl)c1 [6-F03, 2-chloro-N-[2-(3,5-dimethylphenoxy)ethyl]-N-methylacetamide]",0.538
9,"O=C(CCl)NCC(=O)N1CCC(Cc2ccccc2)CC1 [6-F04, N-[2-(4-benzylpiperidin-1-yl)-2-oxoethyl]-2-chloroacetamide]",21.7
10,"CC(Cl)C(=O)N1CCC(c2nc(N(C)C)no2)CC1 (centres unmarked) [6-F05, 2-chloro-1-{4-[3-(dimethylamino)-1,2,4-oxadiazol-5-yl]piperidin-1-yl}propan-1-one]",108
11,"CC(Cl)C(=O)NCCc1ccc(F)cc1 (centres unmarked) [6-F06, 2-chloro-N-[2-(4-fluorophenyl)ethyl]propanamide]",112
12,"CC(Cl)C(=O)NCC1CN(c2ccc(Cl)cc2)CCO1 (centres unmarked) [6-F07, 2-chloro-N-{[4-(4-chlorophenyl)morpholin-2-yl]methyl}propanamide]",101
13,"O=C(CCl)N1CCSc2c([nH]c3ccccc23)C1 [6-F08, 2-chloro-1-{2H,3H,4H,5H,6H-[1,4]thiazepino[6,7-b]indol-4-yl}ethan-1-one]",1.68
14,"CC(Cl)C(=O)NCc1nc(-c2cccc(C#N)c2)c[nH]1 (centres unmarked) [6-F09, 2-chloro-N-{[4-(3-cyanophenyl)-1H-imidazol-2-yl]methyl}propanamide]",113
15,"Cc1cccc(C)c1NC(=O)CNC(=O)C(C)Cl (centres unmarked) [6-F10, 2-chloro-N-{[(2,6-dimethylphenyl)carbamoyl]methyl}propanamide]",106
16,"Cc1noc(C)c1CC(=O)N1CCN(C(=O)C(C)Cl)CC1 (centres unmarked) [6-F11, 2-chloro-1-{4-[2-(3,5-dimethyl-1,2-oxazol-4-yl)acetyl]piperazin-1-yl}propan-1-one]",106
17,"COc1ccc(NC(=O)C(C)Cl)cc1OC (centres unmarked) [6-F12, 2-chloro-N-(3,4-dimethoxyphenyl)propanamide]",109
18,"CC(CNC(=O)C(C)Cl)Oc1cccc(Cl)c1 (centres unmarked) [6-F13, 2-chloro-N-[2-(3-chlorophenoxy)propyl]propanamide]",103
19,"CC(Cl)C(=O)NCc1nnnn1CC1CC1 (centres unmarked) [6-F14, 2-chloro-N-{[1-(cyclopropylmethyl)-1H-1,2,3,4-tetrazol-5-yl]methyl}propanamide]",115
20,"CC(Cl)C(=O)N1CCC(c2nccn2C)C1 (centres unmarked) [6-F15, 2-chloro-1-[3-(1-methyl-1H-imidazol-2-yl)pyrrolidin-1-yl]propan-1-one]",98.6
21,"CC(Cl)C(=O)N1CCCCC1C1CCCN(C(=O)C(F)(F)F)C1 (centres unmarked) [6-F16, 2-chloro-1-[1'-(2,2,2-trifluoroacetyl)-[2,3'-bipiperidin]-1-yl]propan-1-one]",105
22,"COc1ccc([C@H]2C[C@H](NC(=O)C(C)Cl)C2)cc1F (some centres unmarked) [6-F17, 2-chloro-N-[(1r,3r)-3-(3-fluoro-4-methoxyphenyl)cyclobutyl]propanamide]",91.5
23,"CC(Cl)C(=O)N1CCn2c(Cc3c(F)cccc3F)nnc2C1 (centres unmarked) [6-F18, 2-chloro-1-{3-[(2,6-difluorophenyl)methyl]-5H,6H,7H,8H-[1,2,4]triazolo[4,3-a]pyrazin-7-yl}propan-1-one]",100
24,"O=C(CCl)NC(CC1CC1)c1ccc(Cl)cn1 (centres unmarked) [6-F19, 2-chloro-N-[1-(5-chloropyridin-2-yl)-2-cyclopropylethyl]acetamide]",1.46
25,"CC(Cl)C(=O)N1Cc2ccccc2C(n2cccn2)C1 (centres unmarked) [6-F20, 2-chloro-1-[4-(1H-pyrazol-1-yl)-1,2,3,4-tetrahydroisoquinolin-2-yl]propan-1-one]",103
26,"CC(Cl)C(=O)NC1(c2nnc[nH]2)CCC1 (centres unmarked) [6-F21, 2-chloro-N-[1-(4H-1,2,4-triazol-3-yl)cyclobutyl]propanamide]",87.6

# Reference: paper PMC11995724, “Antibiotic target discovery by integrated phenotypic and activity-based profiling of electrophilic fragments” (Cell chemical biology, 2025)
